The values below come from patent US20230117328A1, “METHODS TO TREAT CANCER USING (R)-N-(3-FLUORO-4-((3-((1-HYDROXYPROPAN-2-YL)AMINO)-1H-PYRAZOLO[3,4-B]PYRIDIN-4-YL)OXY)PHENYL)-3-(4-FLUOROPHENYL)-1-ISOPROPYL-2,4-DIOXO-1,2,3,4-TETRAHYDROPYRIMIDINE-5-CARBOXAMIDE” (Array BioPharma Inc., priority 2020, published 2023).

Where two headings read alike, the source gives them in different places.

For the data set, the system named is female Sprague Dawley rats. The following applies: for ocular histopathology findings, Day 28: 10 rats.
[1] abbreviates: 100 mg/kg PO QD Days 1-14 (Group 4).
Where [2] appears, read: 200 mg/kg PO QD Days 1-14 (Group 5).
Setting [3] is: 200 mg/kg PO QD Days 1-14 (Group 5), 9 rats.

`CC(C)n1cc(C(=O)Nc2ccc(Oc3ccnc4[nH]nc(N[C@H](C)CO)c34)c(F)c2)c(=O)n(-c2ccc(F)cc2)c1=O.Cl` [Compound 1 HCl, (R)—N-(3-fluoro-4-((3-((1-hydroxypropan-2-yl)amino)-1H-pyrazolo[3,4-b]pyridin-4-yl)oxy)phenyl)-3-(4-fluorophenyl)-1-isopropyl-2,4-dioxo-1,2,3,4-tetrahydropyrimidine-5-carboxamide hydrochloride]: the “ocular histopathology findings, Day 56” value (100 mg/kg PO QD Days 1-7 (Group 2), recovery necropsy, 5 rats) is listed as “unilateral minimal diffuse atrophy of the ONL which was considered an equivocal change”. Further, under “100 mg/kg PO QD Days 1-7 (Group 2; Test Article 1, Schedule 1)”, the “ocular histopathology findings, Day 28” value is “No test article-related observations”. Under setting [1], the “incidence of retinal changes (overall)” value is on record as “low incidence” and the “reversibility of ocular (retinal) changes” value is recorded as “did not reverse”. Further, under “100 mg/kg PO QD Days 1-14 (Group 4; Test Article 1, Schedule 2), 9 rats”, the “animals with ocular (retinal) changes, Day 28” value is recorded as “one animal (4F-7) had moderate atrophy of the outer nuclear layer (ONL) of the retina”. Besides, where the note is “200 mg/kg PO QD Days 1-7 (Group 3; Test Article 2, Schedule 1)”, the “ocular histopathology findings, Day 28” value is “No test article-related observations”. Besides, under setting [2], the “incidence of retinal changes (overall)” value was “high incidence” and the “reversibility of ocular (retinal) changes” value is reported as “did not reverse”. Also, under setting [3], the “animals with mild atrophy of ONL (thinning to approximately 6-7 nuclei), Day 28” value was “one animal”; the “animals with minimal atrophy of ONL (thinning to approximately 7-8 nuclei), Day 28” value is “two animals”; the “animals with minimal degeneration of the rods and cones layer, Day 28” value is listed as “six animals”; the “animals with moderate atrophy of ONL (thinning to approximately 4-5 nuclei), Day 28” value is “five animals”. Further, the “animals with moderate degeneration of rod and cone processes, Day 28” value under setting [3] was “two animals”. Further, the “animals with ocular (retinal) changes, Day 28” value (200 mg/kg PO QD Days 1-14 (Group 5; Test Article 2, Schedule 2), 9 rats) was “retinal changes were observed in eight animals”. Moreover, the “tolerability (body weight, clinical observations, deaths)” value (female rats, 100 or 200 mg/kg PO QD for 7 or 14 days) is listed as “well tolerated with no effects on body weight, adverse clinical observations or deaths related to test article”.
